Patent publication US6461997B1, “Triazole sulfones having herbicidal activity” (Monsanto Technology LLC, priority 1999, dated 2002)

Key:
SINAR (wild mustard) = assay: Pre-emergence herbicidal activity, cool season; assay type: in vivo, Sinapis arvensis; settings: lowest tested rate with 80% or greater inhibition; rates 300, 100, 30, 10 g/ha; about 14 days
How it was run: (§1)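 Seeds sown in sterilised fertilised topsoil received surface-applied compound in 50:50 acetone/water, typically at 300, 100, 30 and 10 g/ha, then greenhouse-grown at 30/21° C (warm-season species) or 18/13° C (cool-season species). Percent inhibition versus untreated plants was scored at about 14 days, giving GR80; an asterisk marks activity short of 80% at the top rate.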

SOLNI (black nightshade) = assay: Pre-emergence herbicidal activity, warm season; assay type: in vivo, Solanum nigrum; settings: GR80 = lowest tested rate (300, 100, 30, 10 g/ha) with 80% or greater inhibition; approx. 14 days after treating; 30/21° C.
Experimental: (§2) Tables 5 to 8 summarize results of tests conducted as described below to determine the pre-emergence herbicidal activity, in the form of a GR80 value, of illustrative compounds of this invention. […] Compounds of the invention were typically applied at rates of 300, 100, 30, and 10 g/ha. Where herbicidal activity was evident but 80% inhibition was not achieved at the highest rate tested, an asterisk (*) is shown in the following tables.
(§3) The pre-emergence tests were conducted by the following procedure. Topsoil was sieved to pass through a 1.27 cm screen. Fertilizer was added to the topsoil and the mixture was then sterilized by heating. The topsoil mixture was placed in a pot and compacted to a depth of 1.0 to 1.25 cm from the top of the pot. Seeds of each of several monocotyledonous and dicotyledonous annual plant species were placed on top of the soil. Additional soil was subsequently placed over the seeds to level-fill the pot. A known amount of each test compound dissolved or suspended in an appropriate organic solvent was diluted with a 50:50 mix of acetone and water and applied to the surface of the soil. After treatment the plants were placed in a greenhouse where they received 0.64 cm of overhead irrigation. All subsequent watering consisted of a light overhead mist and/or subirrigation as needed for germination and growth. Tables 5 and 6 below relate to warm season plant species which were placed after pre-emergence treatment in a greenhouse with a 30/21° C. day/night temperature regime. Tables 7 and 8 below relates to cool season plant species placed after pre-emergence treatment in a greenhouse or growth chamber with an 18/13° C. day/night temperature regime.
(§4) Approximately 14 days after planting and treating, the plants were observed and herbicidal efficacy recorded as percent inhibition by comparison with untreated plants.
(§5) The plant species usually regarded as weeds which were utilized in the tests are identified in the tables below according to the following legend, in which “d” indicates a dicotyledonous species and “m” a monocotyledonous species. All monocotyledonous species included in the tests herein are grasses.

[1] = system: LAMPU (purple deadnettle); assay: Pre-emergence herbicidal activity, cool season; assay type: in vivo, Lamium purpureum; settings: lowest tested rate with 80% or greater inhibition; rates 300, 100, 30, 10 g/ha; about 14 days
How it was run: as §1

[2] = system: VERPE (creeping speedwell); assay: Pre-emergence herbicidal activity, cool season; assay type: in vivo, Veronica persicaria; settings: lowest tested rate with 80% or greater inhibition; rates 300, 100, 30, 10 g/ha; about 14 days
How it was run: as §1

POLCO (wild buckwheat) = assay: Pre-emergence herbicidal activity, cool season; assay type: in vivo, Polygonum convolvulus; settings: lowest tested rate with 80% or greater inhibition; rates 300, 100, 30, 10 g/ha; about 14 days
How it was run: (§6)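 Herbicidal efficacy was judged visually as percent inhibition compared with untreated plants some 14 days after treatment, giving GR80 over doses of 10 to 300 g/ha. Proso millet and crabgrass grew at 30/21 °C; blackgrass and wild buckwheat grew at 18/13 °C.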

[3] = system: GALAP (catchweed bedstraw); assay: Pre-emergence herbicidal activity, cool season; assay type: in vivo, Galium aparine; settings: lowest tested rate with 80% or greater inhibition; rates 300, 100, 30, 10 g/ha; about 14 days
How it was run: as §1

ABUTH (velvetleaf) = assay: Pre-emergence herbicidal activity, warm season; assay type: in vivo, Abutilon theophrasti; settings: GR80 = lowest tested rate (300, 100, 30, 10 g/ha) with 80% or greater inhibition; approx. 14 days after treating; 30/21° C.
Experimental: as §2, §3, §4, §5

SASKR (russian thistle) = assay: Pre-emergence herbicidal activity, cool season; assay type: in vivo, Salsola kali; settings: lowest tested rate with 80% or greater inhibition; rates 300, 100, 30, 10 g/ha; about 14 days
How it was run: as §1

STEME (common chickweed) = assay: Pre-emergence herbicidal activity, cool season; assay type: in vivo, Stellaria media; settings: lowest tested rate with 80% or greater inhibition; rates 300, 100, 30, 10 g/ha; about 14 days
How it was run: as §1

[4] = system: PANMI (wild proso millet); assay: Pre-emergence herbicidal activity, warm season; assay type: in vivo, Panicum miliaceum; settings: GR80 = lowest tested rate (300, 100, 30, 10 g/ha) with 80% or greater inhibition; approx. 14 days after treating; 30/21° C.
How it was run: as §6

SORVU (shattercane) = assay: Pre-emergence herbicidal activity, warm season; assay type: in vivo, Sorghum vulgare; settings: GR80 = lowest tested rate (300, 100, 30, 10 g/ha) with 80% or greater inhibition; approx. 14 days after treating; 30/21° C.
Experimental: as §2, §3, §4, §5

SETFA (giant foxtail) = assay: Pre-emergence herbicidal activity, warm season; assay type: in vivo, Setaria faberi; settings: GR80 = lowest tested rate (300, 100, 30, 10 g/ha) with 80% or greater inhibition; approx. 14 days after treating; 30/21° C.
Experimental: as §2, §3, §4, §5

[5] = system: BRAPP (broadleaf signalgrass); assay: Pre-emergence herbicidal activity, warm season; assay type: in vivo, Brachiaria platyphylla; settings: GR80 = lowest tested rate (300, 100, 30, 10 g/ha) with 80% or greater inhibition; approx. 14 days after treating; 30/21° C.
Experimental: as §2, §3, §4, §5

POROL (common purslane) = assay: Pre-emergence herbicidal activity, warm season; assay type: in vivo, Portulaca oleracea; settings: GR80 = lowest tested rate (300, 100, 30, 10 g/ha) with 80% or greater inhibition; approx. 14 days after treating; 30/21° C.
Experimental: as §2, §3, §4, §5

[6] = system: AGSST (creeping bentgrass); assay: Pre-emergence herbicidal activity, cool season; assay type: in vivo, Agrostis stolonifera; settings: GR80 = lowest tested rate (300, 100, 30, 10 g/ha) with 80% or greater inhibition; approx. 14 days after treating; 18/13° C.
How it was run: as §1

ECHCG (barnyardgrass) = assay: Pre-emergence herbicidal activity, warm season; assay type: in vivo, Echinochloa crus-galli; settings: GR80 = lowest tested rate (300, 100, 30, 10 g/ha) with 80% or greater inhibition; approx. 14 days after treating; 30/21° C.
How it was run: as §1

SETVI (green foxtail) = assay: Pre-emergence herbicidal activity, cool season; assay type: in vivo, Setaria viridis; settings: GR80 = lowest tested rate (300, 100, 30, 10 g/ha) with 80% or greater inhibition; approx. 14 days after treating; 18/13° C.
How it was run: as §1

[7] = system: CHEAL (common lambsquarters); assay: Pre-emergence herbicidal activity, warm season; assay type: in vivo, Chenopodium album; settings: GR80 = lowest tested rate (300, 100, 30, 10 g/ha) with 80% or greater inhibition; approx. 14 days after treating; 30/21° C.
Experimental: as §2, §3, §4, §5

DIGSA (large crabgrass) = assay: Pre-emergence herbicidal activity, warm season; assay type: in vivo, Digitaria sanguinalis; settings: GR80 = lowest tested rate (300, 100, 30, 10 g/ha) with 80% or greater inhibition; approx. 14 days after treating; 30/21° C.
Experimental: as §2, §3, §4, §5

[8] = system: SORHA (johnsongrass (seedling)); assay: Pre-emergence herbicidal activity, warm season; assay type: in vivo, Sorghum halepense; settings: GR80 = lowest tested rate (300, 100, 30, 10 g/ha) with 80% or greater inhibition; approx. 14 days after treating; 30/21° C.
Experimental: as §2, §3, §4, §5

ALOMY (blackgrass) = assay: Pre-emergence herbicidal activity, cool season; assay type: in vivo, Alopecurus myosuroides; settings: GR80 = lowest tested rate (300, 100, 30, 10 g/ha) with 80% or greater inhibition; approx. 14 days after treating; 18/13° C.
Experimental: as §2, §3, §4, §5

AMARE (redroot pigweed) = assay: Pre-emergence herbicidal activity, warm season; assay type: in vivo, Amaranthus retroflexus; settings: GR80 = lowest tested rate (300, 100, 30, 10 g/ha) with 80% or greater inhibition; approx. 14 days after treating; 30/21° C.
Experimental: as §2, §3, §4, §5

LOLMG (annual ryegrass) = assay: Pre-emergence herbicidal activity, cool season; assay type: in vivo, Lolium multiflorum; settings: GR80 = lowest tested rate (300, 100, 30, 10 g/ha) with 80% or greater inhibition; approx. 14 days after treating; 18/13° C.
Experimental: as §2, §3, §4, §5

Row | Compound | Pre-emergence activity GR80, SINAR (SINAR (wild mustard)) | Pre-emergence activity (GR80) SOLNI (SOLNI (black nightshade)) [g/ha] | Pre-emergence activity GR80, LAMPU [1] | Pre-emergence activity GR80, VERPE [2] | Pre-emergence activity GR80, POLCO (POLCO (wild buckwheat)) | Pre-emergence activity GR80, GALAP [3] | Pre-emergence activity (GR80) ABUTH (ABUTH (velvetleaf)) [g/ha] | Pre-emergence activity GR80, SASKR (SASKR (russian thistle)) | Pre-emergence activity GR80, STEME (STEME (common chickweed)) | Pre-emergence activity (GR80) PANMI [4] [g/ha] | Pre-emergence activity (GR80) BRAPP [5] [g/ha] | Pre-emergence activity (GR80) AGSST [6] [g/ha] | Pre-emergence activity (GR80) SETVI (SETVI (green foxtail)) [g/ha] | Pre-emergence activity (GR80) DIGSA (DIGSA (large crabgrass)) [g/ha] | Pre-emergence activity (GR80) ALOMY (ALOMY (blackgrass)) [g/ha] | Pre-emergence activity (GR80) LOLMG (LOLMG (annual ryegrass)) [g/ha] | further results
1 | CN(Cc1ccccc1)C(=O)n1cnc(S(=O)(=O)C(F)(F)Br)n1 [Example 44] | [empty] | 30 | [empty] | 100 g/ha | [empty] | [empty] | 300 | [empty] | [empty] | 300 |  |  |  |  |  |  | 
2 | CON(C)C(=O)n1cnc(S(=O)(=O)C(F)(F)Cl)n1 [Example 93] | [empty] |  | [empty] | 300 g/ha | [empty] | [empty] | 100 | [empty] | [empty] |  |  |  |  |  |  |  | 
3 | CCSC(F)(F)S(=O)(=O)c1ncn(C(=O)N(C)C2CCCCC2)n1 [Example 55] | [empty] | 300 | [empty] | [empty] | 300 g/ha | [empty] | 300 | [empty] | [empty] | 100 | 300 | 300 | 300 | 300 |  |  | Pre-emergence activity (GR80) SORVU (SORVU (shattercane)): 300 g/ha; Pre-emergence activity (GR80) SETFA (SETFA (giant foxtail)): 300 g/ha; Pre-emergence activity (GR80) POROL (POROL (common purslane)): 300 g/ha; Pre-emergence activity (GR80) ECHCG (ECHCG (barnyardgrass)): 300 g/ha; Pre-emergence activity (GR80) CHEAL [7]: 300 g/ha; Pre-emergence activity (GR80) SORHA [8]: 300 g/ha
4 | CCCN(CC)C(=O)n1cnc(S(=O)(=O)C(F)F)n1 [Example 28] | 10 g/ha |  | 30 g/ha | 10 g/ha | [empty] | 30 g/ha |  | 30 g/ha | 10 g/ha | 300 | 300 | 30 | 30 | 300 | 30 | 300 | Pre-emergence activity (GR80) AMARE (AMARE (redroot pigweed)): 300 g/ha
5 | CCSC(F)(F)S(=O)(=O)c1ncn(C(=O)N(C)OC)n1 [Example 57] | 30 g/ha |  | [empty] | 10 g/ha | 100 g/ha | 300 g/ha |  | 30 g/ha | 30 g/ha |  |  |  | 300 | 300 | 300 | 30 | 
